In US4349378A, “Compounds useful as pesticides” (FBC Limited, priority 1978, dated 1982):

Legend:
Tomato = assay: (II) surface spray, growth regulatory or herbicidal effects; assay type: in vivo, Lycopersicon esculentum; details: 21 days, 100=complete suppression
Description: (§1) (II) An aqueous suspension together with 1000 ppm of the wetting agent Lissapol NX. The surfaces of an additional set of pans with seeds already sown were then sprayed with 2.8 or 1.4 kg/ha in 450 liters/hectare, and the pans kept in the controlled environment room for 21 days.
(§2) The plants were then visually assessed for any growth regulatory or herbicidal effects. All differences from an untreated control were scored on a scale from 0-100, where 0 signifies no effect and 100 signifies complete suppression.
(§3) The results are shown in the following table where I stands for soil incorporation and II for surface spray.

Carrot = assay: as above; assay type: in vivo, Daucus carota; details: 21 days, 100=complete suppression
Description: as §1, §2, §3

Cotton = assay: as above; assay type: in vivo, Gossypium sp.; details: 21 days, 100=complete suppression
Description: as §1, §2, §3

Barley = assay: as above; assay type: in vivo, Hordeum vulgare; details: 21 days, 100=complete suppression
Description: as §1, §2, §3

Wheat = assay: as above; assay type: in vivo, Triticum aestivum; details: 21 days, 100=complete suppression
Description: as §1, §2, §3

Barnyard Grass = assay: as above; assay type: in vivo, Echinochloa crus-galli; details: II surface spray 1.4 kg/ha (line 3.25 ppm), 21 days, 100=complete suppression
Description: as §1, §2, §3

Rice = assay: as above; assay type: in vivo, Oryza sativa; details: 21 days, 100=complete suppression
Description: as §1, §2, §3

Chickweed = assay: (I) soil incorporation, growth regulatory or herbicidal effects; assay type: in vivo, Stellaria media; details: I soil incorporation 6.5 ppm, 21 days, 100=complete suppression
Description: (§4) (I) an attaclay/sand dust and incorporated in John Innes I potting compost at a rate equivalent to 6.5 and 3.25 parts per million weight/volume of active ingredient to soil and placed in anodised aluminium pans, 19 cm long×9.5 cm wide×5.0 cm high. This is approximately equivalent to a surface application of 2.8 and 1.4 kg active ingredient per hectare cultivated to a depth of 5 cm. Seeds of the species listed below were sown in the treated soil, one species per pan, watered and placed in a controlled environment room (22° C.; 65-85% relative humidity and 14 hours artificial illumination at 17000 lux) for 21 days.
as §2, §3

Fathen = assay: as above; assay type: in vivo, Chenopodium album; details: I soil incorporation 6.5 ppm, 21 days, 100=complete suppression
Description: as §4, §2, §3

Xanthomonas malvacearum = assay: bacteriostatic test in dextrose nutrient broth; assay type: cell-based; details: 1,000 and 200 ppm weight/volume; 8 days at 25° C.
Experimental: A 1% suspension/solution of the product of Example 157 in polyethylene glycol (Carbowax 400) was added to a dextrose nutrient broth to give a concentration of 1,000 parts per million (ppm) weight/volume of medium. Dilution in test tubes was then carried out to give a concentration of 200 ppm weight/volume of medium. To 8 ml quantities of broth was added 0.2 ml of a dense broth culture of the bacterium causing black arm of cotton, Xanthomonas malvacearum. After 8 days incubation at 25° C., all the broth specimens were examined for signs of bacterial growth.

acetylcholinesterase = assay: standard test indicative of insecticidal activity, inhibition of acetylcholinesterase; assay type: biochemical; details: 100 micromolar
[1] = II surface spray 1.4 kg/ha (line 3.25 ppm)
[2] = II surface spray 2.8 kg/ha (line 6.5 ppm)

SMILES | growth regulatory or herbicidal effect score (Tomato; [1]) | growth regulatory or herbicidal effect score (Tomato; [2]) | growth regulatory or herbicidal effect score (Carrot; [1]) | growth regulatory or herbicidal effect score (Carrot; [2]) | growth regulatory or herbicidal effect score (Cotton; [1]) | growth regulatory or herbicidal effect score (Cotton; [2]) | growth regulatory or herbicidal effect score (Barley; [1]) | growth regulatory or herbicidal effect score (Barley; [2]) | growth regulatory or herbicidal effect score (Wheat; [1]) | growth regulatory or herbicidal effect score (Wheat; [2]) | growth regulatory or herbicidal effect score (Barnyard Grass) | growth regulatory or herbicidal effect score (Rice; [1]) | growth regulatory or herbicidal effect score (Rice; [2]) | growth regulatory or herbicidal effect score (Chickweed) | growth regulatory or herbicidal effect score (Fathen) | bacterial growth (Xanthomonas malvacearum) | inhibition of acetylcholinesterase (acetylcholinesterase) [%]
CS(=O)(=O)N(CC(N)=S)c1ccc(Cl)c(Cl)c1 [Example 85, N-(thiocarbamoylmethyl)-3,4-dichloromethanesulphonanilide] | 0 | 0 | 0 | 0 | 0 | 0 | 0 | 0 | 0 | 0 | 90 | 0 | 0 | – | – | – | –
CCOC(=O)C(CC)N(c1c(C)cccc1C)S(C)(=O)=O (centres unmarked) [Example 95] | – | – | – | – | – | – | – | – | – | – | – | – | – | 90 | 100 | – | –
Cc1ccc(N(CC#N)S(C)(=O)=O)cc1Cl [Example 131] | 0 | 0 | 0 | 0 | 0 | 0 | 0 | 0 | 0 | 0 | – | 0 | 0 | – | – | – | –
CCS(=O)(=O)N(CC#N)c1ccc(Cl)c(Cl)c1 [Example 137] | 0 | 0 | 0 | 0 | 0 | 0 | 0 | 0 | 0 | 0 | 90 | 0 | 0 | – | – | – | –
Cc1ccc(N(CC(N)=S)S(C)(=O)=O)cc1Cl [Example 150] | 0 | 0 | – | – | 0 | 0 | 0 | 0 | 0 | 0 | – | 0 | 0 | – | – | – | –
CCS(=O)(=O)N(CC(N)=S)c1ccc(Cl)c(Cl)c1 [Example 156] | 0 | 0 | – | – | 0 | 0 | 0 | 0 | 0 | 0 | – | 0 | 0 | – | – | – | –
CS(=O)(=O)N(CC(N)=S)c1cccc(Cl)c1Cl [Example 157] | – | – | – | – | – | – | – | – | – | – | – | – | – | – | – | No growth | –
CNC(=O)ON=C(C)CN(c1c(C)cccc1C)S(C)(=O)=O [Example 248, N-[2-(methylcarbamoyloxyimino)propyl]-2',6'-dimethylmethanesulphonanilide] | – | – | – | – | – | – | – | – | – | – | – | – | – | – | – | – | 30
